According to patent publication US20130202649A1, “ACTIVATION OF INNATE IMMUNITY FOR NUCLEAR REPROGRAMMING OF SOMATIC CELLS” (The Board of Trustees of the Leland Stanford Junior …, priority 2012, published 2013):

What was measured:
[1] = system: human foreskin fibroblasts (BJ); assay: Transdifferentiation of human fibroblasts to endothelial cells (FACS); type: cell-based; details: Poly I:C 30 ng/ml
Protocol: FIG. 21: Direct reprogramming of human fibroblasts to functional endothelial cells via innate immunity activation and microenvironmental cues: (A) Protocol for direct reprogramming of human BJ fibroblasts to endothelial cells. The figure describes the time course and sequential treatments of different medias: Human fibroblasts were treated with Poly I:C (30 ng/ml) for 7 days in differentiation medium I containing DMEM/FBS and 7.5% knockout serum replacement (KSR). Following 7 days, the medium was changed to differentiation medium II containing DMEM/FBS and 10% KSR containing 20 ng/ml BMP4, 50 ng/ml VEGF and 20 ng/ml bFGF. After another 7 days, the medium was replaced with endothelial medium (EGM2) containing 50 ng/ml VEGF, 20 ng/ml bFGF and 0.1 mM 8-Br-cAMP for another 14 days. The medium was changed every 2-3 days. […] (B) Fluorescent activated cell sorting (FACs) plot of data obtained using CD31+ antibody to quantitate iECs. […]
Innate immunity (TLR3 signaling) enables efficient transdifferentiation of fibroblasts to ECs: To determine whether TLR3 signaling was necessary for efficient transdifferentiation of human fibroblasts, we assessed direct differentiation in BJ fibroblasts previously treated with scrambled shRNA or shRNA to knockdown (KD) the expression of TLR3. […]

human BJ fibroblasts = assay: Temporal target and pluripotency gene expression (qPCR) after retroviral vector, CPP or TLR3 agonist treatment; type: cell-based
From the text: In an effort to understand and overcome this failure, we examined the temporal sequence of target gene expression in response to a retroviral construct (pMX-Sox2) versus the corresponding CPP(CPP-SOX2). We focused on validated downstream targets such as Jarid2, Zic2, and bMyb for Sox2-activated genes, as well as, downstream genes known to function in nuclear reprogramming, i.e. Nanog, Sox2 and Oct4. Human fibroblasts were synchronized by serum starvation and then subjected to either a single infection with pMX-Sox2 or daily treatments of CPP-SOX2, and gene expression was assayed over 6 days.
Viral preparation and infection HEK293FT cells were plated at 6×10^6 cells per T225 flask and incubated overnight. Cells were transfected with 10 μg of VSV-G (envelope protein), 15 μg of pUMVC (packaging plasmid) and 10 μg of gene of interest (Sox2 or Oct4) with Lipofectamine. 48 hours after transfection, the supernatant of transfectant was collected and filtered through a 0.45 μm filter. Following spinning at 17,100 rpm for 2 hr 20 min, the viral pellet was resuspended to make 100× stock solutions. Human fibroblasts were seeded at 5×10^4 cells per well of a 6-well dish a day before transduction. The medium was replaced with virus-containing supernatant supplemented with 8 μg/ml polybrene, and incubated for 24 hr.
Treatments At 60-70% confluency, BJ fibroblast cells were serum-starved using 1% serum to induce G1 cell cycle arrest. The synchronized BJ fibroblasts were then subjected to either a single infection with retroviral constructs or daily treatments with 200 nM CPPs (CPP-SOX2 or CPP-OCT4). Poly I:C (300 ng/ml) was added to the cells simultaneously with the CPPs. For experiments involving peptide inhibitors, cells were pretreated for 6 hrs at 40 uM with either MyD88 inhibitory peptide (Pepinh-MyD) or TRIF inhibitory peptide (Pepinh-TRIF) followed by CPP treatments.
Gene Expression and Microarray Analyses RNA was isolated with the RNeasy kit. First-strand cDNA was primed with oligo(dT) primers and qPCR was performed with primer sets from Applied Biosystems. […]

Polyinosinicpolycytidylic acid [Poly I:C]
transdifferentiation of fibroblasts to iECs [1]: significantly enhanced
cells expressed CD31 ([1]; 28 days of differentiation, FACS, relative to the vehicle control): Approximately 2%
target and pluripotency gene expression (human BJ fibroblasts; agent alone, CPP 200 nM daily or single infection on Day 0, assayed over 6 days): unaffected
temporal expression of the downstream genes induced by CPP-OCT4 (human BJ fibroblasts; combined with CPP-OCT4 200 nM daily): accelerated
expression of the downstream genes induced by CPP-SOX2 (human BJ fibroblasts; combined with CPP-SOX2 200 nM daily, poly I:C 300 ng/ml): accelerated
